Read-outs that look alike come from different tables or passages of the source.
Columns and labels:
Type in all cases: physicochemical
[1] = Solubility in water (excess of compound in 4 ml demi water); details: for Solubility: Table E5.2, water; for Solubility (%): Table E8
Experimental: Solubility is preferably solubility in aqueous solution, more preferably solubility in water, most preferably solubility in demineralised water. A skilled person knows how to assess such solubility.
Solubility in water was determined by preparing mixtures of an excess of compound dispersed in 4 ml demi water using a vortex at maximum speed for 1 min. […] 1 ml of the mixture was concentrated in vacuo to yield a solid. The mass of the solid was determined in mg to calculate the solubility in percentage by dividing by ten.

[2] = Foaming abilities, 1% compound solutions shaken by hand; design: key to FOAM: −: no foam formation; +: low foam formation; ++: moderate foam formation; +++: strong foam formation
Experimental: Foaming abilities were evaluated at room temperature by shaking 1% compound solutions (2 ml) of pH 3, 7, and 12 by hand for 10 s. The pH of each solution was assessed with a pH meter at room temperature. […] The foam heights at the initial time were compared to one another after which the foaming abilities were classified according to no foam formation (−), low foam formation (+), moderate foam formation (++), and strong foam formation (+++).

[3] = Solubility in media other than water (methanol, ethyl acetate, oils, 3:1 EtOH/H2O); details: for Solubility in 3:1 EtOH/H2O: 3:1 ethanol water ratio; for SOLUBILITY (H2O): medium named in the cell instead of water: Table E1, cell names the medium in which the compound is soluble
[4] = Foaming power and stability, Ultra-Turrax, 0.4% aq. surfactant; details: for Foamability 1 min / Foamability 5 min / Foamability 30 min: Table E8; for Foamability 1 min: after 1 min; for Foamability 5 min: after 5 min; for Foamability 30 min: after 30 min
Experimental: Foaming power was also tested at room temperature with 5 mL of 0.4% aq. surfactant (20 mg) solution in a 50 mL measuring cylinder. After performing the Ultra-Turrax (a registered trademark for a high-performance dispersing instrument) for 20 seconds (8000 rpm), the initial height of the foam was measured for foam height. (volume in mL). Every time step of, 1, 3, 5, 10, 30, 60 minutes was noted. In addition, after 24 hours the stability was checked. Particularly, foaming power and stability of the surfactants were performed using an IKA Ultra-Turrax T25 with an 18 G dispersing element. At room temperature, an aqueous solution of 5 mL 0.4% surfactant in a 50 mL measuring cylinder (2.20 cm diameter) was mixed with the Ultra-Turrax for 20 seconds at 8000 rpm. The foam height (volume in mL) was denoted for 0, 1, 3, 5, 10, 30, 60 min and 24 hours. In addition, after 24 hours the stability was checked.

[5] = Surface tension measurements, Wilhelmy plate (surface tension, CMC)
Experimental: Surface tension measurements were performed with a Biolin Scientific Sigma701 automatic tension meter equipped with a Wilhelmy plate made of platinum (±0.5 mN/m). […] The number of experimental points is related to the compound's/surfactant's solubility and available quantity. All compound/surfactant solutions were allowed to stand 12 h before being measured. The platinum plate was thoroughly cleaned with demi water and flame-dried before each measurement. The CMC of each compound/surfactant was determined at the minimum of a breakpoint of a conventional plot of surface tension versus compound/surfactant concentration. DCMC was obtained by acquiring the surface tension at the CMC. The pC20 value was determined by taking the minus log of the concentration compound/surfactant at a surface tension of 52 mN/m.

[6] = Table E3, N-alkylated compounds
[7] = Table E6, N-oxide compounds, in Salt form

SMILES	solubility in water, in words [1]	SOLUBILITY (H2O) [1, 6]	FOAM ([2]; Table E3)	solubility in methanol, in words [3]	SOLUBILITY (H2O) [1, 7]	Solubility (%) [1]	FOAM ([2]; Table E6, in Salt form)	Foamability 1 min [4]	Foamability 5 min [4]	Foamability 30 min [4]	CMC (%) ([5]; Table E6, in Salt form)	SURFACE TENSION ([5]; Table E6, in Salt form)	CMC (%) ([5]; Table E8)	Surface tension (nM/m) ([5]; Table E8)	other results
CCCCCCCCNC(=O)[C@H](O)[C@@H](O)[C@@H](O)CO [Compound 03, 1-(N-octyl)-L-arabinonamide]	poorly soluble														FOAM ([2]; Table E1): −; Solubility in 3:1 EtOH/H2O [3]: soluble; SOLUBILITY (H2O): medium named in the cell instead of water ([3]; in 3:1 ethanol/water): 3:1 EtOH/H2O &; SOLUBILITY (H2O): medium named in the cell instead of water ([3]; in oil): in oil; solubility in diverse oils, in words [3]: soluble
CCCCCCCCCCNC(=O)[C@H](O)[C@@H](O)[C@@H](O)CO [Compound 04, 1-(N-Decyl)-L-arabinonamide]	poorly soluble														FOAM ([2]; Table E1): −; SOLUBILITY (H2O): medium named in the cell instead of water [3]: In oil; solubility in diverse oils, in words [3]: soluble
CCCCCCCCN(C)C(=O)[C@H](O)[C@@H](O)[C@@H](O)CO [Compound 17, N-methyl-N-octyl-L-arabinonamide]	well soluble	Soluble	++	well soluble											foaming behaviour / foam creation, in words [2]: good foaming behaviour
CCCCCCN(C)C(=O)[C@H](O)[C@@H](O)[C@@H](O)CO [Compound 18, N-methyl-N-hexyl-L-arabinonamide]	well soluble	Soluble	−	well soluble											
CCCCCCCCCCCCN(C)C(=O)[C@H](O)[C@@H](O)[C@@H](O)CO [Compound 19, N-methyl-N-dodecyl-L-arabinonamide]	well soluble	Soluble	++	well soluble											solubility in ethyl acetate, in words ([3]; ethyl acetate): well soluble
CCCCCCCCN(C)C(=O)[C@H](O)[C@@H](O)[C@@H](O)[C@H](O)C(=O)O [Compound 20]	well soluble	Soluble	++	well soluble											foaming behaviour / foam creation, in words [2]: good foaming behaviour
CCCCCCCCCCCCN(C)C(=O)[C@H](O)[C@@H](O)[C@@H](O)[C@H](O)C(=O)O [Compound 22]	well soluble	Soluble	++	well soluble											foaming behaviour / foam creation, in words [2]: good foaming behaviour
CCCCCCCCCCCCN(C)C[C@H](O)[C@@H](O)[C@@H](O)[C@H](O)C(=O)O [Compound 32, N-methyl-N-dodecyl-D-galacturonic acid amine]															solubility in H2O [1]: 1%; SOLUBILITY (H2O) ([1]; Table E5): 1%; Solubility [1]: 1%; FOAM ([2]; Table E5, pH not given): +++; stability in foam ([2]; whole pH range): enormous stability; Foamability (mL) after (min) 1 ([4]; Table E5.2, foam volume after 1 min): 4.5 mL; Foamability (mL) after (min) 5 ([4]; Table E5.2, foam volume after 5 min): 5 mL; Foamability (mL) after (min) 10 ([4]; Table E5.2, foam volume after 10 min): 3 mL; SURFACE TENSION [5]: 33.9 mN/m; CMC (%) ([5]; Table E5): 0.1%; SURFACE TENSION ([5]; Table E5, room temperature, pH 7): 33.9 mN/m; CMC (%) ([5]; Table E5.2): 0.1%; Surface tension (nM/m) ([5]; Table E5.2): 33.9 mN/m; critical micelle concentration (CMC) ([5]; running text b302): 0.01%
CCCCCCNC[C@H](O)[C@@H](O)[C@@H](O)[C@H](O)C(=O)O [Compound 37, N-hexyl-D-galacturonic acid amine, reference compound]															SOLUBILITY (H2O) ([1]; Table E5): 14%; Solubility [1]: 14%; FOAM ([2]; Table E5, pH not given): −; Solubility in 3:1 EtOH/H2O [3]: (Poorly in 3:1
CCCCCC[N+](C)([O-])C[C@H](O)[C@@H](O)[C@@H](O)CO (stereo partly drawn) [Compound 38, N-methylhexyl-L-arabinonamine oxide]					19%	19%	−	0.5 mL	0 mL	0 mL	1.60%	49.275 mN/m	1.30%	53.59 mN/m	
CCCCCCCC[N+](C)([O-])C[C@H](O)[C@@H](O)[C@@H](O)CO (stereo partly drawn) [Compound 39, N-methyloctyl-L-arabinonamine oxide]					11%	11%	++	2 mL	2 mL	0.5 mL	0.55%	27.734 mN/m	0.55%	27.73 mN/m	
CCCCCC[N+](C)([O-])C[C@H](O)[C@@H](O)[C@@H](O)[C@H](O)C(=O)O (stereo partly drawn) [Compound 41, N-methyl-N-hexyl-D-galacturonic acid amine oxide]					17%	17%	−	0.5 mL	0 mL	0 mL	2.58%	37.727 mN/m	2.60%	42.90 mN/m	
CCCCCCCC[N+](C)([O-])C[C@H](O)[C@@H](O)[C@@H](O)[C@H](O)C(=O)O (stereo partly drawn) [Compound 42, N-methyl-N-octyl-D-galacturonic acid amine oxide]					10%	10%	+++	6 mL	6 mL	2 mL	0.65%	42.89 mN/m	0.65%	42.89 mN/m	
CCCCCCCCCC[N+](C)([O-])C[C@H](O)[C@@H](O)[C@@H](O)[C@H](O)C(=O)O (stereo partly shown) [Compound 42b]					8%	8%	+++	6 mL	6 mL	5 mL	0.08%	25.17 mN/m	0.08%	25.17 mN/m	
CCCCCCCCCCCC[N+](C)([O-])C[C@H](O)[C@@H](O)[C@@H](O)[C@H](O)C(=O)O (stereo partly drawn) [Compound 43, N-methyl-N-dodecyl-D-galacturonic acid amine oxide]					7%	7%	+++	5 mL	4 mL	4 mL	0.058%	25.551 mN/m	0.058%	25.55 mN/m	

— patent US20260008801A1, “BIO-BASED SURFACTANTS DERIVED FROM CARBOHYDRATES” (COÖPERATIE KONINKLIJKE COSUN U.A., priority 2022, published 2026)
